This passage reports mortality and Efficacy in % results from patent US20110275813A1, “Bicylic 1,3-diones and Their Use as Insecticides, Acaricides and/or Fungicides” (Bayer Cropscience AG, priority 2009, published 2011).

The structures appear in SMILES notation. Some results are limits rather than exact numbers.

What all share (assay type): in vivo
The subject of one experiment is Tetranychus urticae. Nature of the experiment: Tetranychus urticae test; OP-resistant (TETRUR spray application). The note with it: 120 h, spray on infested French beans, after 5 days. As to the method:
Tetranychus urticae—Test; OP-Resistant (TETRUR Spray Application)
(§1) Solvent: 78.0 parts by weight acetone • 1.5 parts by weight dimethylformamide
(§2) Emulsifier: 0.5 parts by weight alkylarylpolyglycolether
To produce a suitable preparation of active compound, 1 part by weight of active compound is mixed with the stated amount of solvent and emulsifier, and the concentrate is diluted with emulsifier-containing water to the desired concentration. French beans (Phaseolus vulgaris) which are heavily infested with all stages of the two spotted spidermite (Tetranychus urticae), are sprayed with a preparation of the active ingredient at the desired concentration.
After 5 days mortality in % is determined. 100% means that all spider mites have been killed and 0% means that none of the spider mites have been killed.

The next experiment concerns Spodoptera frugiperda. Nature of the experiment: Spodoptera frugiperda test (SPODFR spray application). Conditions: 168 h, sprayed maize leaf sections, after 7 days.
Excerpt: Spodoptera frugiperda—Test (SPODFR Spray Application)
as §1, §2
To produce a suitable preparation of the active compound, 1 part by weight of active compound is mixed with the stated amount of solvent and emulsifier, and the concentrate is dilutes with emulsifier-containing water to the desired concentration. Maize (Zea mais) leaf sections are sprayed with a preparation of the active ingredient of the desired concentration. Once dry, the leaf sections are infested with fall armyworm larvae (Spodoptera frugiperda).
After 7 days mortality in % is determined. 100% means that all caterpillars have been killed and 0% means that none of the caterpillars have been killed.

The next experiment deals with Phaedon cochleariae. Put plainly: Phaedon cochleariae test (PHAECO spray application). The note with it: 168 h, sprayed Chinese cabbage leaf-disks, after 7 days. The method, then: Phaedon cochleariae—Test; (PHAECO Spray Application)
Solvent: 78.0 parts by weight of acetone • • 1.5 parts by weight of dimethylformamide
Emulsifier: 0.5 parts by weight of alkylaryl polyglycolether
To produce a suitable preparation of active compound, 1 part by weight of active compound is mixed with the stated amount of solvent and emulsifier, and the concentrate is diluted with emulsifier-containing water to the desired concentration. Chinese cabbage (Brassica pekinesis) leaf-disks are sprayed with a preparation of the active ingredient of the desired concentration. Once dry, the leaf disks are infested with mustard beetle larvae (Phaedon cochleariae).
After 7 days mortality in % is determined. 100% means that all beetle larvae have been killed and 0% means that none of the beetle larvae have been killed.

Another experiment concerns Myzus persicae. Put plainly: Myzus persicae test (MYZUPE spray application). The note with it: 144 h, sprayed Chinese cabbage leaf-disks, after 6 days. The method, then:
Myzus persicae—Test; (MYZUPE Spray Application)
as §1, §2
To produce a suitable preparation of active compound, 1 part by weight of active compound is mixed with the stated amount of solvent and emulsifier, and the concentrate is diluted with emulsifier-containing water to the desired concentration. Chinese cabbage (Brassica pekinesis) leaf-disks infected with all instars of the green peach aphid (Myzus persicae), are sprayed with a preparation of the active ingredient at the desired concentration.
After 6 days mortality in % is determined. 100% means that all aphids have been killed; 0% means that none of the aphids have been killed.

The next experiment relates to Sphaerotheca fuliginea. Put plainly: Sphaerotheca test (cucumber)/preventive. Conditions: preventive, 7 days after inoculation. As to the method: Sphaerotheca Test (Cucumber)/Preventive
Solvent: 49 parts by weight of N,N-Dimethylformamide
Emulsifier: 1 part by weight of Alkylarylpolyglycolether
To produce a suitable preparation of active compound, 1 part by weight of active compound is mixed with the stated amounts of solvent and emulsifier, and the concentrate is diluted with water to the desired concentration.
To test for preventive activity, young plants are sprayed with the preparation of active compound at the stated rate of application. One day after this treatment, the plants are inoculated with an aqueous spore suspension of Sphaerotheca fuliginea. Then the plants are placed in a greenhouse at approximately 23° C. and a relative atmospheric humidity of approximately 70%.
The test is evaluated 7 days after the inoculation. 0% means an efficacy which corresponds to that of the control, while an efficacy of 100% means that no disease is observed.

As to `Cc1ccc(-c2ccc(Cl)cc2)cc1C1=C(O)[C@H]2CC[C@H](C2)C1=O` [Compound T1], the mortality at 500 g/ha with Tetranychus urticae (500 g/ha), in the experiment with Spodoptera frugiperda (500 g/ha), in the experiment with Phaedon cochleariae and with Myzus persicae was at least 80% each time. For the same molecule, the Efficacy in % with Sphaerotheca fuliginea (500 ppm) came to 95%.

Consider `CC12CCC(C(=O)C(c3cc(-c4ccc(Cl)cc4)ccc3Cl)=C1O)C2(C)C` (stereo not drawn) [T 114], for which the mortality at 20 g/ha in the experiment with Tetranychus urticae (20 g/ha) was at least 80%. The same molecule registered an Efficacy in % with Sphaerotheca fuliginea (500 ppm) of 90%.

The molecule `Cc1ccc(-c2ccc(Cl)cc2)cc1C1=C(O)C2(C)CCC(C1=O)C2(C)C` (stereo not drawn) [T 115] gave a mortality at 100 g/ha in the experiment with Spodoptera frugiperda (100 g/ha) of at least 80%. In the experiment with Sphaerotheca fuliginea (250 ppm), this molecule yielded an Efficacy in % of 80%.
